Legend:
Assay type in all cases: cell-based
Settings in all cases: after 10, 20, 40 and 60 minutes at all dilutions 1:100, 1:200, 1:400, 1:800
Escherichia coli = assay: Antimicrobial screening by agar dilution, E. Coli
Procedure: (§1) The antibacterial properties of the synthesized compound (9-(6-flouro-2-hydroxypyridin-3-yl)-10-(2-hydroxyethyl)-3,6-diphenyl-3,4,6,7,9,10-hexahydroacridine1,8(2H,5H)-dione) were studied by the method of agar dilution. Test solutions of each compound was prepared in concentration of 1% using dimethylformamide as a solvent then they are diluted in physiological solution to obtain the final experimental dilutions 1:100, 1:200, 1:400, 1:800. The effect of these substances are compared with furacillin in a controllable study. The testing microbes used were gram positive bacteria Staphylococcus aureus, gram negative bacteria Pseudomonas aeruginosa and Escherichia coli and Candida albicans fungus. The experiments used for this survey were meat-pentonlu agar (EPA) for cultivation of bacteria and Saburo environment for the fungus. Each experiment used 1 mL of test solution on each plate […]. Two drops of emulsified with microbes feel were added. All experimental samples were taken from the agar after 10, 20, 40, 60 minutes in the environment on the basis of Patrk planted. The bacteria were cultivated at a temperature of 37° C. for 1 day and the mushroom was kept in a thermostat for […] at a temperature of 28° C. Then results were checked.

Candida albicans = assay: Antimicrobial screening by agar dilution, Candida albicans
Procedure: as §1

Pseudomonas aeruginosa = assay: Antimicrobial screening by agar dilution, Ps. Aeroqonaza
Procedure: as §1

Staphylococcus aureus = assay: Antimicrobial screening by agar dilution, St. Aereus
Procedure: as §1

Measured: inhibition activity (in words)

O=C1CC(c2ccccc2)CC2=C1C(c1cc3cc(F)ccc3nc1O)C1=C(CC(c3ccccc3)CC1=O)N2CCO (stereo not shown)
the most higher inhibition activity: Escherichia coli | Candida albicans | Pseudomonas aeruginosa | Staphylococcus aureus

Reference: patent US12168651B1, “9-(6-flouro-2-hydroxypyridin-3-yl)-10-(2-hydroxyethyl)-3,6-diphenyl-3,4,6,7,9,10-hexahydroacridine1,8(2H,5H)-dione as an antimicrobial compound” (KING FAISAL UNIVERSITY, priority 2023, dated 2024)
